Reference: patent US20200163947A1 (Nortic Holdings Inc., priority 2018, published 2020)
Values after ≈ are worked out from the molar mass of the structure shown. Read-outs that look alike come from different tables or passages of the source.

How the values were obtained:
[1] = cited from earlier work
[2] = 25° C.; cited from earlier work
[3] = Single dose parallel plasma and CSF pharmacokinetics and relative bioavailability study in rats; format: in vivo; conditions: both sexes, Wistar, rat, plasma
Description: The pharmacokinetics study was performed in 6 healthy rats (3 males and 3 females). […] Blood samples were collected at 15 minutes, 30 minutes, and at 1, 2, 4, 6, 8, 12 and 24 hours post-dose. CSF samples were collected at 1, 2, 4, and 24 hours post-dose. All samples were analyzed using a validated analytical LC-MS method.

In the case of `COCCOC(=O)C1=C(C)NC(C)=C(C(=O)OC(C)C)C1c1cccc([N+](=O)[O-])c1` (stereo not drawn) [nimodipine, isopropyl 2-methoxyethyl 1,4-dihydro-2,6-dimethyl-4-(m-nitrophenyl)-3,5-pyridinedicarboxylate], the “half-life equivalent to earlier elimination rates” value ([1]; man) is listed as 1 to 2 h, the “concentration in the cerebrospinal fluid” value ([1]; nimodipine-treated subarachnoid hemorrhage (SAH) patients) is listed as ≤ 12.5 ng/mL and the “Cmax in patients with hepatic cirrhosis versus normal” value ([1]; oral administration) is listed as “approximately double”. The solubility in water [2] was 2.5 µg/mL (≈ 5.97 µM), the bioavailability ([3]; 0.73 mg, continuous intravenous infusion, read-out: absolute bioavailability) was 100% and the bioavailability ([3]; rats, 5.5 mg oral solution by oral gavage, Mean, read-out: Absolute Bioavailability (F %)) was 22%.
